Assay [1] deals with T1, full-length beta-Catenin (Uniprot ID P35222) (Homo sapiens, UniProt P35222).
T1 construct: 10 nM full-length beta-Catenin (Uniprot ID P35222)
T1 sequence (P35222 1-781): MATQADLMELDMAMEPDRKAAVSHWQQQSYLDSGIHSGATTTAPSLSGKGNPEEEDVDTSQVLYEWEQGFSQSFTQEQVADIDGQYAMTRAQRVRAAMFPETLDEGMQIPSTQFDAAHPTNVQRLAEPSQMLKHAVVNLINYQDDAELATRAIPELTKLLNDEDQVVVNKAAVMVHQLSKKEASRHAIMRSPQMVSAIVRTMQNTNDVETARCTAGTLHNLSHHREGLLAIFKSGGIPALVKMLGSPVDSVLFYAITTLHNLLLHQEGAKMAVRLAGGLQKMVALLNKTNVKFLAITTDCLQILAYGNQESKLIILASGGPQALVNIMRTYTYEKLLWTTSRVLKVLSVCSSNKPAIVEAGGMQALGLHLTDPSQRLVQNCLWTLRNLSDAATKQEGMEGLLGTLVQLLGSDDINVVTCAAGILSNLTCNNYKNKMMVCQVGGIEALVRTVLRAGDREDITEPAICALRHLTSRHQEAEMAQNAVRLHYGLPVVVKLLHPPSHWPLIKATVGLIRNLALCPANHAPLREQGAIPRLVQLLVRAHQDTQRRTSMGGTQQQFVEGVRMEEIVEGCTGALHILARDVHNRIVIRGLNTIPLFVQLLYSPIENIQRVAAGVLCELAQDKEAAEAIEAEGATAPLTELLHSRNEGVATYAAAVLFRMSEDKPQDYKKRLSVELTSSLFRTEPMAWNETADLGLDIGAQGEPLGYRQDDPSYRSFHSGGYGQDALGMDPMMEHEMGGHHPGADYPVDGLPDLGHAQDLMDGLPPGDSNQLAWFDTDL
The experiment in a line: Fluorescence polarization IC50 (beta-catenin / 5FAM-TCF4 10-53 competition). The assay is classed as binding. To be noted: fluorescence polarization; read-out: beta-Catenin FP IC50.

For assay [2], the target named is T2, beta-catenin/TCF4 engagement (Homo sapiens, UniProt P35222).
T2 construct: expressed in transfected cells; host or cells: HEK293
T2 sequence (P35222 1-781): T1 sequence (P35222 1-781)
The experiment in a line: Nano-BRET target engagement assay (B-cat-Halo & TCF4-Luc in HEK293 cells). The assay is classed as cell-based. As to conditions: absolute IC50; read-out: NanoBRET Abs IC50.

The structures appear in SMILES notation. pIC50: −log10 of the molar value.

For the compound `CCNC(=O)[C@H](CCC(N)=O)NC(=O)[C@H](Cc1csc2ccccc12)NC(=O)[C@H](Cc1ccsc1)NC(=O)[C@]12CCN(C1)C(=O)OCCCC=CCCCC1(CCCC=CC[C@]3(CCCN3C(C)=O)C(=O)N[C@@H](CC(=O)O)C(=O)N[C@@H](CC(C)(C)C)C(=O)N1)C(=O)N[C@@H](CC(=O)O)C(=O)N[C@@H](CN(CC(=O)O)CC(F)(F)F)C(=O)N[C@@H](C)C(=O)N[C@@H](C)C(=O)N[C@@H](Cc1ccccc1)C(=O)N[C@@H](CC(C)C)C(=O)N2` (stereo partly drawn) [I-1678, Ac-PL3-Asp-Npg-B5-Asp-TfeGA-Ala-Ala-Phe-Leu-PyrS2-3Thi-BztA-Gln-NHEt], the negative-log IC50 (pIC50) is 7.49 in assay [1] and 5.01 in assay [2].
For `CC(=O)N1CCC[C@]12CC=CCCCC1(CCCC=CCCCOC(=O)N3CC[C@@](C(=O)N[C@@H](Cc4ccsc4)C(=O)N[C@@H](Cc4csc5ccccc45)C(=O)N[C@@H](CCC(N)=O)C(=O)N[C@H](CO)Cc4ccccc4)(C3)NC(=O)[C@H](CC(C)C)NC(=O)[C@H](Cc3ccccc3)NC(=O)[C@H](C)NC(=O)[C@H](C)NC(=O)[C@H](CN(CC(=O)O)CC(F)(F)F)NC(=O)[C@H](CC(=O)O)NC1=O)NC(=O)[C@H](CC(C)(C)C)NC(=O)[C@H](CC(=O)O)NC2=O` (stereo partly drawn) [I-1680, Ac-PL3-Asp-Npg-B5-Asp-TfeGA-Ala-Ala-Phe-Leu-PyrS2-3Thi-BztA-Gln-Pheo1], the pIC50 in assay [1] is 7.09; in assay [2], 4.90.
Take `CC(=O)N1CCC[C@]12CC=CCCCC1(CCCC=CCCCOC(=O)N3CC[C@@](C(=O)N[C@@H](Cc4ccsc4)C(=O)N[C@@H](Cc4csc5ccccc45)C(=O)N[C@@H](CCC(N)=O)C(=O)N4CCC[C@H]4CO)(C3)NC(=O)[C@H](CC(C)C)NC(=O)[C@H](Cc3ccccc3)NC(=O)[C@H](C)NC(=O)[C@H](C)NC(=O)[C@H](CN(CC(=O)O)CC(F)(F)F)NC(=O)[C@H](CC(=O)O)NC1=O)NC(=O)[C@H](CC(C)(C)C)NC(=O)[C@H](CC(=O)O)NC2=O` (stereo partly drawn) [I-1681, Ac-PL3-Asp-Npg-B5-Asp-TfeGA-Ala-Ala-Phe-Leu-PyrS2-3Thi-BztA-Gln-Proo1]: the values for the pIC50 in assay [1] and in assay [2] were 7.73 and 5.27, respectively.
On to `CC(=O)N1CCC[C@]12CC=CCCCC1(CCCC=CCCCOC(=O)N3CC[C@@](C(=O)N[C@@H](Cc4ccsc4)C(=O)N[C@@H](Cc4csc5ccccc45)C(=O)N[C@@H](CCC(N)=O)C(=O)N[C@H](CO)[C@@H](C)O)(C3)NC(=O)[C@H](CC(C)C)NC(=O)[C@H](Cc3ccccc3)NC(=O)[C@H](C)NC(=O)[C@H](C)NC(=O)[C@H](CN(CC(=O)O)CC(F)(F)F)NC(=O)[C@H](CC(=O)O)NC1=O)NC(=O)[C@H](CC(C)(C)C)NC(=O)[C@H](CC(=O)O)NC2=O` (stereo partly drawn) [I-1683, Ac-PL3-Asp-Npg-B5-Asp-TfeGA-Ala-Ala-Phe-Leu-PyrS2-3Thi-BztA-Gln-Thro1], for which the pIC50 in assay [1] was 8.05; in assay [2], 5.43.
With `CC(=O)N1CCC[C@]12CC=CCCCC1(CCCC=CCCCOC(=O)N3CC[C@@](C(=O)N[C@@H](Cc4ccccc4Cl)C(=O)N[C@@H](Cc4csc5ccccc45)C(=O)N[C@@H](CCC(N)=O)C(N)=O)(C3)NC(=O)[C@H](CC(C)C)NC(=O)[C@H](Cc3ccccc3)NC(=O)[C@H](C)NC(=O)C(C)(C)NC(=O)[C@H](Cc3cccc(C(=O)O)c3)NC(=O)[C@H](CC(=O)O)NC1=O)NC(=O)[C@H](CC(C)(C)C)NC(=O)[C@H](CC(=O)O)NC2=O` (stereo partly drawn) [I-1686, Ac-PL3-Asp-Npg-B5-Asp-3COOHF-Aib-Ala-Phe-Leu-PyrS2-2C1F-BztA-Gln-NH2], the pIC50 is 7.96 in assay [1] and 5.27 in assay [2].
As to `CC(=O)N1CCC[C@]12CC=CCCCC1(CCCC=CCCCOC(=O)N3CC[C@@](C(=O)N[C@@H](Cc4ccccc4Cl)C(=O)N[C@@H](Cc4csc5ccccc45)C(=O)N[C@@H](CCC(N)=O)C(N)=O)(C3)NC(=O)[C@H](CC(C)C)NC(=O)[C@H](Cc3ccccc3)NC(=O)CNC(=O)[C@H](C)NC(=O)[C@H](Cc3cccc(C(=O)O)c3)NC(=O)[C@H](CC(=O)O)NC1=O)NC(=O)[C@H](CC(C)(C)C)NC(=O)[C@H](CC(=O)O)NC2=O` (stereo partly drawn) [I-1687, Ac-PL3-Asp-Npg-B5-Asp-3COOHF-Ala-Gly-Phe-Leu-PyrS2-2C1F-BztA-Gln-NH2], the negative-log IC50 (pIC50) was 7.38 in assay [1] and 4.73 in assay [2].
The like results for `CCCC[C@@H]1NC(=O)[C@H](Cc2cccc(C(=O)O)c2)NC(=O)[C@H](CC(=O)O)NC(=O)C2(CCCC=CCCCOC(=O)N3CC[C@@](C(=O)N[C@@H](Cc4ccccc4Cl)C(=O)N[C@@H](Cc4csc5ccccc45)C(=O)N[C@@H](CCC(N)=O)C(N)=O)(C3)NC(=O)[C@H](CC(C)C)NC(=O)[C@H](Cc3ccccc3)NC(=O)CNC1=O)CCCC=CC[C@]1(CCCN1C(C)=O)C(=O)N[C@@H](CC(=O)O)C(=O)N[C@@H](CC(C)(C)C)C(=O)N2` (stereo partly drawn) [I-1688, Ac-PL3-Asp-Npg-B5-Asp-3COOHF-nLeu-Gly-Phe-Leu-PyrS2-2C1F-BztA-Gln-NH2] were, in that order, 7.23 and 4.67.
On to `CC(=O)N1CCC[C@]12CC=CCCCC1(CCCC=CCCCOC(=O)N3CC[C@@](C(=O)N[C@@H](Cc4ccccc4Cl)C(=O)N[C@@H](Cc4csc5ccccc45)C(=O)N[C@@H](CCC(N)=O)C(N)=O)(C3)NC(=O)[C@H](CC(C)C)NC(=O)[C@H](Cc3ccccc3)NC(=O)CNC(=O)C(C)(C)NC(=O)[C@H](Cc3cccc(C(=O)O)c3)NC(=O)[C@H](CC(=O)O)NC1=O)NC(=O)[C@H](CC(C)(C)C)NC(=O)[C@H](CC(=O)O)NC2=O` (stereo partly drawn) [I-1689, Ac-PL3-Asp-Npg-B5-Asp-3COOHF-Aib-Gly-Phe-Leu-PyrS2-2C1F-BztA-Gln-NH2], for which the figures for the pIC50 in assay [1] and in assay [2] were 7.59 and 4.90, respectively.
With `CC(=O)N1CCC[C@]12CC=CCCCC1(CCCC=CCCCOC(=O)N3CC[C@@](C(=O)N[C@@H](Cc4ccccc4Cl)C(=O)N[C@@H](Cc4csc5ccccc45)C(=O)N[C@@H](CCC(N)=O)C(N)=O)(C3)NC(=O)[C@H]([C@@H](C)O)NC(=O)[C@H](Cc3ccccc3)NC(=O)[C@H](C)NC(=O)CNC(=O)[C@H](CN(CC(=O)O)CC(F)(F)F)NC(=O)[C@H](CC(=O)O)NC1=O)NC(=O)[C@H](CC(C)(C)C)NC(=O)[C@H](CC(=O)O)NC2=O` (stereo partly drawn) [I-1691, Ac-PL3-Asp-Npg-B5-Asp-TfeGA-Gly-Ala-Phe-Thr-PyrS2-2C1F-BztA-Gln-NH2], the pIC50 in assay [1] was 7.96; in assay [2], 4.89.
In the case of `CCCC[C@@H]1NC(=O)[C@H](CN(CC(=O)O)CC(F)(F)F)NC(=O)[C@H](CC(=O)O)NC(=O)C2(CCCC=CCCCOC(=O)N3CC[C@@](C(=O)N[C@@H](Cc4ccccc4Cl)C(=O)N[C@@H](Cc4csc5ccccc45)C(=O)N[C@@H](CCC(N)=O)C(N)=O)(C3)NC(=O)[C@H]([C@@H](C)O)NC(=O)[C@H](Cc3ccccc3)NC(=O)[C@H](C)NC1=O)CCCC=CC[C@]1(CCCN1C(C)=O)C(=O)N[C@@H](CC(=O)O)C(=O)N[C@@H](CC(C)(C)C)C(=O)N2` (stereo partly drawn) [I-1692, Ac-PL3-Asp-Npg-B5-Asp-TfeGA-nLeu-Ala-Phe-Thr-PyrS2-2C1F-BztA-Gln-NH2], the pIC50 in assay [1] is 7.77; in assay [2], 4.98.
The like results for `CC(=O)N1CCC[C@]12CC=CCCCC1(CCCC=CCCCOC(=O)N3CC[C@@](C(=O)N[C@@H](Cc4ccccc4Cl)C(=O)N[C@@H](Cc4csc5ccccc45)C(=O)N[C@@H](CCC(N)=O)C(N)=O)(C3)NC(=O)[C@H]([C@@H](C)O)NC(=O)[C@H](Cc3ccccc3)NC(=O)[C@H](C)NC(=O)C(C)(C)NC(=O)[C@H](CN(CC(=O)O)CC(F)(F)F)NC(=O)[C@H](CC(=O)O)NC1=O)NC(=O)[C@H](CC(C)(C)C)NC(=O)[C@H](CC(=O)O)NC2=O` (stereo partly drawn) [I-1693, Ac-PL3-Asp-Npg-B5-Asp-TfeGA-Aib-Ala-Phe-Thr-PyrS2-2C1F-BztA-Gln-NH2] were, in that order, 8.00 and 5.34.
Take `CC(=O)N1CCC[C@]12CC=CCCCC1(CCCC=CCCCOC(=O)N3CC[C@@](C(=O)N[C@@H](Cc4ccccc4Cl)C(=O)N[C@@H](Cc4csc5ccccc45)C(=O)N[C@@H](CCC(N)=O)C(N)=O)(C3)NC(=O)[C@H]([C@@H](C)O)NC(=O)[C@H](Cc3ccccc3)NC(=O)CNC(=O)[C@H](C)NC(=O)[C@H](CN(CC(=O)O)CC(F)(F)F)NC(=O)[C@H](CC(=O)O)NC1=O)NC(=O)[C@H](CC(C)(C)C)NC(=O)[C@H](CC(=O)O)NC2=O` (stereo partly drawn) [I-1694, Ac-PL3-Asp-Npg-B5-Asp-TfeGA-Ala-Gly-Phe-Thr-PyrS2-2C1F-BztA-Gln-NH2]: the pIC50 in assay [1] is 7.24; in assay [2], 4.36.
With `CCCC[C@@H]1NC(=O)[C@H](CN(CC(=O)O)CC(F)(F)F)NC(=O)[C@H](CC(=O)O)NC(=O)C2(CCCC=CCCCOC(=O)N3CC[C@@](C(=O)N[C@@H](Cc4ccccc4Cl)C(=O)N[C@@H](Cc4csc5ccccc45)C(=O)N[C@@H](CCC(N)=O)C(N)=O)(C3)NC(=O)[C@H]([C@@H](C)O)NC(=O)[C@H](Cc3ccccc3)NC(=O)CNC1=O)CCCC=CC[C@]1(CCCN1C(C)=O)C(=O)N[C@@H](CC(=O)O)C(=O)N[C@@H](CC(C)(C)C)C(=O)N2` (stereo partly drawn) [I-1695, Ac-PL3-Asp-Npg-B5-Asp-TfeGA-nLeu-Gly-Phe-Thr-PyrS2-2C1F-BztA-Gln-NH2], the pIC50 is 7.03 in assay [1] and below 4.70 in assay [2].

The record behind these values is patent US20240116985A1, “STAPLED PEPTIDES AND METHODS THEREOF” (priority 2020, published 2024).
